Columns and labels:
[1] = target: T1, CHK1 (h) (Homo sapiens, UniProt O14757); assay: Chk-1 kinase inhibiting activity (Upstate radiometric assay); format: biochemical
T1 construct: purchased Upstate Ltd (assay run at Upstate)
T1 sequence (O14757 1-476): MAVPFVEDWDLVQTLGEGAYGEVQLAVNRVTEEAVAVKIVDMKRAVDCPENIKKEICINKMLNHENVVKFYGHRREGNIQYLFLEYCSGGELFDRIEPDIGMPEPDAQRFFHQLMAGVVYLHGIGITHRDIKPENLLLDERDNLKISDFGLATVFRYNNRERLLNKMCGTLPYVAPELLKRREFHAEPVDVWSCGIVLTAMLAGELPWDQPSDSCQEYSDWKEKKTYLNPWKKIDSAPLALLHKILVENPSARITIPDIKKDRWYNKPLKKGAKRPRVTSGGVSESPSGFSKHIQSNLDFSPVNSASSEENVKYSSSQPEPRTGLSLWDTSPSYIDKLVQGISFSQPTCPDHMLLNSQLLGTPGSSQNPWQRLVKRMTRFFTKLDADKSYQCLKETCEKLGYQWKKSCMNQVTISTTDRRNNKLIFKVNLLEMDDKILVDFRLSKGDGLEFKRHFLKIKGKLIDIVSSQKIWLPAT
Experimental: The N-oxide compounds of the invention and their tertiary amine precursors were tested for activity against the Chk-1 kinase.
The Chk-1 assay was conducted at Upstate Ltd, Gemini Crescent, Dundee Technology Park, Dundee, DD2 1 SW, UK in accordance with the protocol set out below. In a final reaction volume of 25 μl, CHK1 (h) (5-10 mU) is incubated with 8 mM MOPS pH 7.0, 0.2 mM EDTA, 200 μM […], 10 mM MgAcetate and γ-33P-ATP] (specific activity approx. 500 cpm/pmol, concentration as required). The reaction is initiated by the addition of the MgATP mix. After incubation for 40 minutes at room temperature, the reaction is stopped by the addition of 5 μl of a 3% phosphoric acid solution. 10 μl of the reaction mixture is then spotted onto a P30 filtermat and washed three times for 5 minutes in 75 mM phosphoric acid and once in methanol prior to drying and scintillation counting.

[2] = target: T2, hERG potassium channel (Homo sapiens, UniProt Q12809); assay: Functional hERG assay (patch clamp, HEK-293 cells); format: cell-based; details: 5-point dose response, triplicate
T2 construct: expressed in transfected cells; host or cells: HEK-293
T2 sequence (Q12809 whole entry): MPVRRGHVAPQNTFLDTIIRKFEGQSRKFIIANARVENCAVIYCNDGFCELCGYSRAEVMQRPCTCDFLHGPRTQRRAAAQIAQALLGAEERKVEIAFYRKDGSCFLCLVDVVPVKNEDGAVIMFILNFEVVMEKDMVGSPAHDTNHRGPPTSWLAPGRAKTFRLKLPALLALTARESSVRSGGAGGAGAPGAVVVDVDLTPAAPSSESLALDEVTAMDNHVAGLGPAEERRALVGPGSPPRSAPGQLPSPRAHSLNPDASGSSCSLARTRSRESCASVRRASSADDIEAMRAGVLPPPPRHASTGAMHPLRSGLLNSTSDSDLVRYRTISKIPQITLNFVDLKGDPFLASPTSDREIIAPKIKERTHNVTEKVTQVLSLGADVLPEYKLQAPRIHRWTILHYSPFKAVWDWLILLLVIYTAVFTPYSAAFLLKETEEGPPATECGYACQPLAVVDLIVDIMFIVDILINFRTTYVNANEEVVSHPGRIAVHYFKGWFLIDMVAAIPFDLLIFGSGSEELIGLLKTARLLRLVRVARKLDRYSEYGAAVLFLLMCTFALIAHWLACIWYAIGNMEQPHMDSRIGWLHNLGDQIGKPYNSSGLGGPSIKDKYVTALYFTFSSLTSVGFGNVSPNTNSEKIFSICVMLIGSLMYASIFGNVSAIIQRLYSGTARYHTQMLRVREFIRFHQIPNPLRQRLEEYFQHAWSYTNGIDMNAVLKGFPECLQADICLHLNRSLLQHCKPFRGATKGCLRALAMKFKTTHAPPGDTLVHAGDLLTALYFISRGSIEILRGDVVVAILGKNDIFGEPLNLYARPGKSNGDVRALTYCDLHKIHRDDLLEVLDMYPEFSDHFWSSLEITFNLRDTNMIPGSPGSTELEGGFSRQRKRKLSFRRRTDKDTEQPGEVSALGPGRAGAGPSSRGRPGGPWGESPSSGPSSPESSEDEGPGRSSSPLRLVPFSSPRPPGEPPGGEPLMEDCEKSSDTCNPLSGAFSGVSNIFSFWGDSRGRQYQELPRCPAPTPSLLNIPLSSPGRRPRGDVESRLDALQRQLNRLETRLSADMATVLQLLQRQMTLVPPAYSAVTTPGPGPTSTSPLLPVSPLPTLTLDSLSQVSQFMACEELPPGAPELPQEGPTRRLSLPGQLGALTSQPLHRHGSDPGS
Experimental: The N-oxide compounds of the invention and their tertiary amine precursors were each tested for hERG inhibiting activity using the method of Zhou Z, Gong Q, Ye B, Fan Z, Makielski J C, Robertson G A, January C T. Biophys J. 1998 January; 74(1):230-41.
Test compounds were tested in triplicate in a 5-point dose response curve on HEK-293 cells stably expressing the hERG potassium channel. Potassium current was measured using the patch clamp technique on a Molecular Devices Patch Express 7000. hERG channels were activated by 2 second pulses to +20 mV from a holding potential of −80 mV, and peak tail currents were recorded upon repolarization to −50 mV. This voltage-clamp pulse protocol was performed continuously during the experiment (vehicle control, test compound, washout, and positive control additions). An interpulse interval of 15 seconds allowed recovery from any residual inactivation. Test compounds were incubated with cells between 3-8 minutes until the current reached a steady state level, defined by a Standard Deviation of 0.01. After the final test compound concentration was tested, test compound was washed out with continuous perfusion of extracellular solution for 3 minutes, followed by application of positive control (10 μM Cisparide).
Test compounds were diluted in 100% DMSO at 1000× the highest concentration to be tested, vortexed, and sonicated. Visual inspection determined that compounds were completely solubilized. Test compounds were then diluted into glass vials in 100% DMSO for all test concentrations at 1000× the final concentration to be tested and vortexed. Test compounds were then diluted 1:1000 into extracellular solution and vortexed to achieve final concentration for testing. Final DMSO concentration was 0.1% for all concentrations of test compounds, Vehicle (negative) control, and Cisapride (positive) control in extracellular solution. The compositions of the solutions used were as follows:
Intracellular Soln (mM): KCl 130, EDTA 5, MgCl2 5, HEPES10, Na-ATP 5, pH=7.2 Extracellular Soln (mM): NaCl 137, KCl 4, CaCl2 1.8, MgCl2 1, Dextrose 11, HEPES 10, pH=7.4

[3] = target: T3, human potassium channel hERG (Homo sapiens, UniProt Q12809); assay: hERG binding activity ([3H] astemizole displacement, HEK-293 membranes); details: 1.5 nM [3H] astemizole; for IC50: 60 minutes at 25° C.; for HERG Binding % @ 100 uM (extent of binding): @ 100 uM test compound
T3 construct: expressed in transfected cells; host or cells: HEK-293
T3 sequence (Q12809 whole entry): as above
Experimental: The abilities of the N-oxide compounds of the invention and their tertiary amine precursors were tested using the assay described below.
Human recombinant HEK-293 cells stably transfected with a plasmid encoding the human potassium channel hERG were used to prepare membranes in modified HEPES pH 7.4 buffer using standard techniques. A 10 μg aliquot of membrane was incubated with 1.5 nM [^3H] astemizole in the presence of varying concentrations of test compound for 60 minutes at 25° C. The membranes were then filtered and washed three times and the filters were counted to determine the [^3H] astemizole specifically bound. From the counts, the extent of binding of the test compound and, in some cases, the IC50 values of the test compounds, were determined.

[4] = target: T4, JNK1α1(h) (Homo sapiens, UniProt P45983); assay: Kinase selectivity screen (Upstate); format: biochemical; details: 10 μM compound; ATP 45 μM; N = 2
T4 construct: purchased Upstate
T4 sequence (P45983 1-384 isoform P45983-2): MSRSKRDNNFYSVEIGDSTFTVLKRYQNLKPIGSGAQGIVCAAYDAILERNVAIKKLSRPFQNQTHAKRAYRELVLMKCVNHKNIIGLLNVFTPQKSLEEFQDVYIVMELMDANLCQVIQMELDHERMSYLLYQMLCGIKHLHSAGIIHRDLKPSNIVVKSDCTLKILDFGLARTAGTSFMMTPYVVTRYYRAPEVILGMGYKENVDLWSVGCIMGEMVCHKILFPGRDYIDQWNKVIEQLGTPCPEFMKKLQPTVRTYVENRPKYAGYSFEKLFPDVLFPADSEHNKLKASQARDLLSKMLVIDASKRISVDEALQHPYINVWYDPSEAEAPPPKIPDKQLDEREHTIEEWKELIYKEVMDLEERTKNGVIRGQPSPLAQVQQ
Experimental: (§1) The compound of Example 1F was tested (Upstate) against a number of other kinases and the results are set out in Table 5 below.

[5] = target: T5, NEK2(h) (Homo sapiens, UniProt P51955); assay: Kinase selectivity screen (Upstate); format: biochemical; details: 10 μM compound; ATP 120 μM; N = 2
T5 construct: purchased Upstate
T5 sequence (P51955 whole entry): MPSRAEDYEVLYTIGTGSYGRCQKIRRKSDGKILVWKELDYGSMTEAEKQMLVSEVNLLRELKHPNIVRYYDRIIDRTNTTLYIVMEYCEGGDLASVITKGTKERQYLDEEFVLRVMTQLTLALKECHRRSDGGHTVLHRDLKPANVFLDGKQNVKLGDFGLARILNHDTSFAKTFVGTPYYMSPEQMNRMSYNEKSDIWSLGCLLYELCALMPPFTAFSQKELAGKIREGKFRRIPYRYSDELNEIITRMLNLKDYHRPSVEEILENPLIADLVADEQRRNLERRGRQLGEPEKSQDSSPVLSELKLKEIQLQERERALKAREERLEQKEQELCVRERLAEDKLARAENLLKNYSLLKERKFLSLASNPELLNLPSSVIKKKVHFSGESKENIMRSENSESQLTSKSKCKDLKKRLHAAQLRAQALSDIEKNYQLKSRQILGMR
Experimental: as §1

[6] = target: T6, PDGFRβ(h) (Homo sapiens, UniProt P09619); assay: Kinase selectivity screen (Upstate); format: biochemical; details: 10 μM compound; ATP 200 μM; N = 2
T6 construct: purchased Upstate
Experimental: as §1

[7] = target: T7, FGFR1(h) (Homo sapiens, UniProt P11362); assay: Kinase selectivity screen (Upstate); format: biochemical; details: 10 μM compound; ATP 200 μM; N = 2
T7 construct: purchased Upstate
Experimental: as §1

[8] = target: T8, IGF-1R(h) (Homo sapiens, UniProt P08069); assay: Kinase selectivity screen (Upstate); format: biochemical; details: 10 μM compound; ATP 200 μM; N = 2
T8 construct: purchased Upstate
Experimental: as §1

[9] = target: T9, ZAP-70(h) (Homo sapiens, UniProt P43403); assay: Kinase selectivity screen (Upstate); format: biochemical; details: 10 μM compound; ATP 15 μM; N = 2
T9 construct: purchased Upstate
Experimental: as §1

[10] = target: T10, MAPK2(h) (Homo sapiens, UniProt P28482); assay: Kinase selectivity screen (Upstate); format: biochemical; details: 10 μM compound; ATP 155 μM; N = 2
T10 construct: purchased Upstate
Experimental: as §1

[11] = target: T11, CDK2/cyclinE(h) (Homo sapiens, UniProt P24941); assay: Kinase selectivity screen (Upstate); format: biochemical; details: 10 μM compound; ATP 120 μM; N = 2
T11 construct: purchased Upstate
Experimental: as §1

[12] = target: T12, Fms(h) (Homo sapiens, UniProt P07333); assay: Kinase selectivity screen (Upstate); format: biochemical; details: 10 μM compound; ATP 200 μM; N = 2
T12 construct: purchased Upstate
Experimental: as §1

[13] = target: T13, Yes(h) (Homo sapiens, UniProt P07947); assay: Kinase selectivity screen (Upstate); format: biochemical; details: 10 μM compound; ATP 45 μM; N = 2
T13 construct: purchased Upstate
Experimental: as §1

[14] = target: T14, cSRC(h) (Homo sapiens, UniProt P12931); assay: Kinase selectivity screen (Upstate); format: biochemical; details: 10 μM compound; ATP 200 μM; N = 2
T14 construct: purchased Upstate
Experimental: as §1

[15] = target: T15, KDR(h) (Homo sapiens, UniProt P35968); assay: Kinase selectivity screen (Upstate); format: biochemical; details: 10 μM compound; ATP 90 μM; N = 2
T15 construct: purchased Upstate
T15 sequence (P35968 20-1356): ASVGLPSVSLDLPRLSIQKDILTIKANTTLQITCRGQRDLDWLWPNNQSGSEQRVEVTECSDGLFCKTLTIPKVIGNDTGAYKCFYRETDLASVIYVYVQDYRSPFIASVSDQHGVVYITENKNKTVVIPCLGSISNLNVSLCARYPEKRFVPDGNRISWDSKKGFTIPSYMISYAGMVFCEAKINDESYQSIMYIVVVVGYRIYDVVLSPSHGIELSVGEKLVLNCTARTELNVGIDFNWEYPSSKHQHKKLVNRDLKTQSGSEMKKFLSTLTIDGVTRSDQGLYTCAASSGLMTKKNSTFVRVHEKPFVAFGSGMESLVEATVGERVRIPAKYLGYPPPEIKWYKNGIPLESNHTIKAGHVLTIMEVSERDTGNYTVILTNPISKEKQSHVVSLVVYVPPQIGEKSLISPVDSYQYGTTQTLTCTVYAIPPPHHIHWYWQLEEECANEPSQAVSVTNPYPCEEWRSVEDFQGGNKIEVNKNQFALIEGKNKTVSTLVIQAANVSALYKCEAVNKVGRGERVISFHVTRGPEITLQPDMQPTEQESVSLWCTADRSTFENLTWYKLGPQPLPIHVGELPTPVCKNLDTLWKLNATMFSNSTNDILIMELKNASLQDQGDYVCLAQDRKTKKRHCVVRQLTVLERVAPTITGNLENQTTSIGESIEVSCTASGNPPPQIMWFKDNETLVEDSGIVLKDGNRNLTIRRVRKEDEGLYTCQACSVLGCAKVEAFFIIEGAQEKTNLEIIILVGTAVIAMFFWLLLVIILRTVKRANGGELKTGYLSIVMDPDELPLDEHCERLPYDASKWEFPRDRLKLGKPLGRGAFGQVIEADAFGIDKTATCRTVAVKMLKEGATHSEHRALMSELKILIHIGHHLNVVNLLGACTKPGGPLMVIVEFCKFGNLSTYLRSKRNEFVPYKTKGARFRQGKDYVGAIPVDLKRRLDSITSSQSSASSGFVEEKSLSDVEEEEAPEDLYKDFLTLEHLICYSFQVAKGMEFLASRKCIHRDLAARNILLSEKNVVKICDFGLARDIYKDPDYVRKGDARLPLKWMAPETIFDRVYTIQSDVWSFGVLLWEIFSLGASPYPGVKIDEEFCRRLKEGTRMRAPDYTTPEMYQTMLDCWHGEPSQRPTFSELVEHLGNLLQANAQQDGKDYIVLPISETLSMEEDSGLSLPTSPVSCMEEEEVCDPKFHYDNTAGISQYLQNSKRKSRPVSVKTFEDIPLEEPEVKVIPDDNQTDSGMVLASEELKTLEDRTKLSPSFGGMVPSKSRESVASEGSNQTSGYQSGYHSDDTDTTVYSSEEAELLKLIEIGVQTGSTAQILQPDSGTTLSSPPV
Experimental: as §1

[16] = target: T16, PKCθ(h) (Homo sapiens, UniProt Q04759); assay: Kinase selectivity screen (Upstate); format: biochemical; details: 10 μM compound; ATP 15 μM; N = 2
T16 construct: purchased Upstate
Experimental: as §1

[17] = target: T17, CHK2(h) (Homo sapiens, UniProt O96017); assay: Kinase selectivity screen (Upstate); format: biochemical; details: 10 μM compound; ATP 70 μM; N = 2
T17 construct: purchased Upstate
Experimental: as §1

[18] = target: T18, Pim-1(h) (Homo sapiens, UniProt P11309); assay: Kinase selectivity screen (Upstate); format: biochemical; details: 10 μM compound; ATP 90 μM; N = 2
T18 construct: purchased Upstate
Experimental: as §1

[19] = target: T19, PKA(h) (Homo sapiens, UniProt P17612); assay: Kinase selectivity screen (Upstate); format: biochemical; details: 10 μM compound; ATP 10 μM; N = 2
T19 construct: purchased Upstate
Experimental: as §1

[20] = target: T20, Aurora-A(h) (Homo sapiens, UniProt O14965); assay: Kinase selectivity screen (Upstate); format: biochemical; details: 10 μM compound; ATP 15 μM; N = 2
T20 construct: purchased Upstate
Experimental: as §1

[21] = target: T21, cKit(h) (Homo sapiens, UniProt P10721); assay: Kinase selectivity screen (Upstate); format: biochemical; details: 10 μM compound; ATP 200 μM; N = 2
T21 construct: purchased Upstate
Experimental: as §1

[22] = target: T22, Tie2(h) (Homo sapiens, UniProt Q02763); assay: Kinase selectivity screen (Upstate); format: biochemical; details: 10 μM compound; ATP 200 μM; N = 2
T22 construct: purchased Upstate
Experimental: as §1

[23] = target: T23, MEK1(h) (Homo sapiens, UniProt Q02750); assay: Kinase selectivity screen (Upstate); format: biochemical; details: 10 μM compound; ATP 10 μM; N = 2
T23 construct: purchased Upstate
T23 sequence (Q02750 whole entry): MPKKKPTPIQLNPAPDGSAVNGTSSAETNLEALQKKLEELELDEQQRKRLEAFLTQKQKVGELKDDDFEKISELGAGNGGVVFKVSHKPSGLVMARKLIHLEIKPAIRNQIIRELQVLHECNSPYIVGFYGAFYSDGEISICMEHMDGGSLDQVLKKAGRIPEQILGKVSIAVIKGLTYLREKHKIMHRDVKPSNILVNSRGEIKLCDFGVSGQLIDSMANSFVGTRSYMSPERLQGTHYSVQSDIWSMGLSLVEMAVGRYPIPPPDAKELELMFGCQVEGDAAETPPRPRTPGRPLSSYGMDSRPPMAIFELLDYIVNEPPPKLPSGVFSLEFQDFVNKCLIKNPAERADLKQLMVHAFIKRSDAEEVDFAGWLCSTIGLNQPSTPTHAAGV
Experimental: as §1

[24] = target: T24, EGFR(h) (Homo sapiens, UniProt P00533); assay: Kinase selectivity screen (Upstate); format: biochemical; details: 10 μM compound; ATP 10 μM; N = 2
T24 construct: purchased Upstate
Experimental: as §1

[25] = target: T25, Flt3(h) (Homo sapiens, UniProt P36888); assay: Kinase selectivity screen (Upstate); format: biochemical; details: 10 μM compound; ATP 200 μM; N = 2
T25 construct: purchased Upstate
Experimental: as §1

[26] = test system: other kinases; assay: Kinase selectivity screen (Upstate), panel as a whole; format: biochemical, human; details: 10 μM compound; summary of Table 5
Experimental: as §1

`CN(C)CCCOc1ccc(Cl)cc1NC(=O)Nc1cnccn1` [Example 1C, 1-[5-Chloro-2-(3-dimethyloxyamino-propoxy)-phenyl]-3-pyrazin-2-yl-urea] gave an IC50 [1] of 41 nM, an IC50 [2] of 108 nM and an IC50 [3] of 5030 nM.
Compound `C[N+](C)([O-])CCCOc1ccc(Cl)cc1NC(=O)Nc1cnccn1` [Example 1F] has an IC50 [1] of 71 nM, an IC50 [2] of 26700 nM and an inhibition at 10 µM [4] of 0%. The inhibition at 10 µM [5] was 0%, the inhibition at 10 µM [6] was 1% and the inhibition at 10 µM [7] was 92%. The inhibition at 10 µM [8] was 36%, the inhibition at 10 µM [9] was 5% and the inhibition at 10 µM [10] was 0%. It also gave an inhibition at 10 µM [11] of 0%, an inhibition at 10 µM [12] of 12% and an inhibition at 10 µM [13] of 0%. The inhibition at 10 µM [14] was 11%, the inhibition at 10 µM [15] was 38% and the inhibition at 10 µM [16] was 37%. The inhibition at 10 µM [17] was 71%, the inhibition at 10 µM [18] was 0% and the inhibition at 10 µM [19] was 0%. For the same compound, the inhibition at 10 µM [20] was 14%, the inhibition at 10 µM [21] was 0% and the inhibition at 10 µM [22] was 11%. The inhibition at 10 µM [23] was 0%, the inhibition at 10 µM [24] was 0% and the inhibition at 10 µM [25] was 73%. For the same compound, the “HERG Binding % @ 100 uM (extent of binding)” value [3] was 35% @ 100 uM and the “activity against most other kinases apart from CHK2, FGFR1 and Flt3” value [26] was “largely inactive or only poorly active”.
For `Cc1cnc(NC(=O)Nc2cc(Cl)ccc2OCCCN(C)C)cn1` [Example 2B, 1-[5-Chloro-2-(3-dimethylamino-propoxy)-phenyl]-3-(5-methyl-pyrazin-2-yl)-urea], the IC50 [1] was 51 nM, the IC50 [2] was 610 nM and the IC50 [3] was 2980 nM.
In the case of `Cc1cnc(NC(=O)Nc2cc(Cl)ccc2OCCC[N+](C)(C)[O-])cn1` [Example 2C, 1-[5-Chloro-2-(3-dimethyloxyamino-propoxy)-phenyl]-3-(5-methyl-pyrazin-2-yl)-urea], the IC50 [1] is reported as 128 nM, the IC50 [2] is reported as over 30000 nM and the “HERG Binding % @ 100 uM (extent of binding)” value [3] is reported as 3% @ 100 uM.
